Laboratory results as given in patent US20130317222A1, “SOLID FORMS OF GYRASE INHIBITOR (R)-1-ETHYL-3-[5-[2-(1-HYDROXY-1-METHYL-ETHYL)PYRIMIDIN-5-YL]-7-(TETRAHYDROFURAN-2-YL]-1H-BENZIMIDAZOL-2-YL]UREA” (Vertex Pharmaceuticals Incorporated, priority 2011, published 2013).
Structures can show the parent of a compound that is named as a salt.

Experiments:
Staphylococcus aureus = test: MIC, micro dilution broth method (Protocol 1); type: cell-based
[1] = test system: Staphylococcus epidermidis; test: MIC, micro dilution broth method (Protocol 1); type: cell-based; details: Staphlococcus epidermidis, 35 isolates tested
Enterococcus faecalis = test: MIC, micro dilution broth method (Protocol 1); type: cell-based
Enterococcus faecium = test: MIC, micro dilution broth method (Protocol 1); type: cell-based
Streptococcus pneumoniae = test: MIC, micro dilution broth method (Protocol 1); type: cell-based
[2] = test system: β-haemolytic streptococci (Groups A, B, C and G); test: MIC, micro dilution broth method (Protocol 1); type: cell-based; details: 28 isolates tested
Bacillus cereus = test: MIC, micro dilution broth method (Protocol 1); type: cell-based
Bacillus subtilis = test: MIC, micro dilution broth method (Protocol 1); type: cell-based
Haemophilus influenzae = test: MIC against Gram negatives, microdilution broth method (Protocol 2); type: cell-based
Source text: The specific protocols used were as follows:
Drug Dilutions, Inoculation, MIC Determination: • 1. […] All MICs were done in duplicate. • 6.

Clostridium difficile = test: MIC, agar dilution method (Protocol 3); type: cell-based
Clostridium perfringens = test: microbe, parasite or virus in culture; type: cell-based
Bacteroides fragilis = test: MIC, agar dilution method (Protocol 3); type: cell-based; details: 25 isolates tested
[3] = test system: Bacteroides and Parabacter spp.; test: MIC, agar dilution method (Protocol 3); type: cell-based; details: 26 isolates tested
Fusobacterium spp. = test: MIC, agar dilution method (Protocol 3); type: cell-based; details: 16 isolates tested
Peptostreptococcus spp. = test: MIC, agar dilution method (Protocol 3); type: cell-based; details: 11 isolates tested
Prevotella spp. = test: MIC, agar dilution method (Protocol 3); type: cell-based; details: 13 isolates tested
Neisseria gonorrhoeae = test: MIC, agar dilution method (Protocol 3); type: cell-based
Experimental: (§1) Plate Pouring: • 1. Prepared 100× drug stocks of each test compound as described in Table 1A. Used a 15 mL centrifuge tube, added 100 uL of each drug stock to 10 mL of molten agar (cooled to 55° C. in water bath). Mixed by inverting tube 2-3× then pour into individually labeled 60×15 mm Petri dish. • 2. […] Poured 4 drug free plates: 2 as positive control, 2 as aerobic control. • 4. Allowed plates to dry. Used same day or stored overnight at RT or stored up to 3 days at 4° C. • 5. Plates were labeled accordingly for drug concentration and strain placement. Plate Inoculation (Performed in Biosafety Cabinet): • 1. Streaked each strain onto individual agar plates as described above. Incubated for required time and environmental condition (i.e. anaerobic, microaerophilic, etc). • 2. Used direct colony suspension method to suspend loopfuls of freshly streaked cells into 4 mL 0.9% […] and vortexed. • 3. Adjusted suspension to O.D.600 0.05 (5×10e7 cfu/mL). Vortexed to mix. • 4. Transferred 0.2 mL of adjusted, mixed cultures to a 96 well plate. When ≦5 strains were tested, all strains were lined together in a single row. When testing >5 strains, transfered strains into plate with no more that 5 strains in a single row. This was necessary to fit on the small plates. • 5. […] The former and latter served as growth and inoculation controls. Incubated one plate from each set of drug-free controls under required atmospheric conditions with MIC plates and one set aerobically to test for contamination with aerobic bacteria. Aerobic culture was negative for growth when working with strict anaerobe or microaerophilic strain. Some growth was visible with N. gonorrhoeae. • 6. Allowed inoculum to dry (for as short a time as necessary), then placed upside down in GasPak with appropriate number of sachets and incubate. • 7. Neisseria spp. were incubated at 37° C. in a5% CO2 environment for 24 h. MIC Determination: Examined the test plates after the correct incubation time and read the MIC endpoint at the concentration where a marked reduction occurred in the appearance of growth on the test plate as compared to that of growth on the positive control plates. [table]

Neisseria meningitidis = test: MIC, agar dilution method (Protocol 3); type: cell-based; details: 12 isolates tested
Experimental: as §1

Mycobacterium avium = test: MIC determination procedure for Mycobacterium species (Protocol 4); type: cell-based
Nocardia caviae = test: as above; type: cell-based; details: Nocardia caviae 2497
N. asteroids = test: as above; type: cell-based; details: N. asteroids 2039
N. nova = test: as above; type: cell-based; details: N. nova 10
M. tuberculosis = test: as above; type: cell-based
[4] = test system: Mycobacterium tuberculosis; test: Mycobacterium tuberculosis Serum Shift MIC Assay (Protocol 5); type: cell-based
Source text: Protocol #5. Protocol for Mycobacterium tuberculosis Serum Shift MIC Assay
Media Prep: • 1. […] It was important that all media and supplements were sterilized prior to MICs. • 2. Prepared all media below and inoculated as described in next section. Tested all compounds against Mtb using each media. • a. 7H9+0.2% glycerol+10% OADC (“standard” MIC media). • b. 7H9+0.2% glycerol+2 g/L dextrose+0.85 g/L NaCl+0.003 g/L catalase (0% FBS). • c. 2×7H9+0.2% glycerol+2 g/L dextrose+0.85 g/L NaCl+0.003 g/L catalase combined with equal volume Fetal Bovine Serum (50% FBS).
Inoculum Prep: • 1. […] Typically plates were two to three weeks of age when used for this assay due to the slow growth of this organism in culture. • 2. Vortexed well, then sonicated in water bath for 30 sec providing a suspension of ˜10^8 cells/ml. […] Prepared inoculum in each of the three media formulations by diluting the BBL Prompt suspension 1/200 (for example: transferred 0.2 ml of cells to 40 ml of medium) to obtain a starting cell density of ˜10^6 cells/ml. • 4.
Drug Dilutions, Inoculation, MIC Determination: • 1. […]
After 24 hours the fluorescence of each well was measured at Excitation 492 nm, Emission 595 nm.
Percent inhibition by a given compound was calculated as follows: Percent inhibition=100−([well fluorescence-average background fluorescence]/[DMSO control−average background fluorescence]×100).

Moraxella catarrhalis = test: MIC against Gram negatives, microdilution broth method (Protocol 2)
Escherichia coli = test: as above
Klebsiella pneumoniae = test: as above
Acinetobacter baumannii = test: as above
Pseudomonas aeruginosa = test: as above
Proteus mirabilis = test: as above
Enterobacter cloacae = test: as above
[5] = Staphylococcus aureus, 67 isolates tested
[6] = Enterococcus faecalis, 34 isolates tested
[7] = Streptococcus pneumoniae, 67 isolates tested
[8] = Haemophilus influenzae, 55 isolates tested
[9] = Neisseria gonorrhoeae, 13 isolates tested
[10] = M. tuberculosis Erdman ATCC 35801

Molecule `CCNC(=O)Nc1nc2cc(-c3cnc(C(C)(C)O)nc3)cc([C@H]3CCCO3)c2[nH]1` [Compound 13, methanesulfonic acid salt of 1-ethyl-3-[5-[2-(1-hydroxy-1-methyl-ethyl)pyrimidin-5-yl]-7-[(2R)-tetrahydrofuran-2-yl]-1H-benzimidazol-2-yl]urea] has an MIC (Staphylococcus aureus; Staphylococcus aureus ATCC 29213) of 0.13 µg/mL, an MIC (Staphylococcus aureus; Staphylococcus aureus ATCC 29213 GyrB T173I) of 1.29 µg/mL and an MIC (Staphylococcus aureus; Staphylococcus aureus ATCC 29213 with Human Serum) of 0.31 µg/mL. The MIC (Staphylococcus aureus; Staphylococcus aureus ATCC 29213 with Mouse Serum) was 2 µg/mL, the MIC (Staphylococcus aureus; Staphylococcus aureus ATCC 29213 with Rat Serum) was 0.53 µg/mL and the MIC90 (Staphylococcus aureus; [5]) was 0.25 µg/mL. For the same molecule, the “MIC Range” value (Staphylococcus aureus; [5]) was 0.03 to 0.5 µg/mL, the “MIC Range” value [1] was 0.03 to 0.25 µg/mL and the MIC90 ([1]; Staphylococcus epidermidis) was 0.12 µg/mL. The MIC (Enterococcus faecalis; Enterococcus faecalis ATCC 29212, with Laked Horse Blood) was 0.081 µg/mL, the MIC90 (Enterococcus faecalis; [6]) was 0.25 µg/mL and the “MIC Range” value (Enterococcus faecalis; [6]) was 0.03 to 0.25 µg/mL. The MIC90 (Enterococcus faecium; Enterococcus faecium) was 0.5 µg/mL, the MIC (Enterococcus faecium; Enterococcus faecium ATCC 49624, Protocol 1) was 0.25 µg/mL and the MIC (Enterococcus faecium; Enterococcus faecium ATCC 49624 with Laked Horse Blood, Protocol 1) was 0.39 µg/mL. For the same molecule, the “MIC Range” value (Enterococcus faecium; Enterococcus faecium, 33 isolates tested, Protocol 1) was 0.12 to 0.5 µg/mL, the MIC (Streptococcus pneumoniae; Streptococcus pneumoniae ATCC 10015, with Laked Horse Blood) was 0.022 µg/mL and the MIC90 (Streptococcus pneumoniae; [7]) was 0.06 µg/mL. The “MIC Range” value (Streptococcus pneumoniae; [7]) was 0.015 to 0.06 µg/mL, the MIC90 [2] was 0.25 µg/mL and the “MIC Range” value [2] was 0.06 to 0.5 µg/mL. The MIC (Bacillus cereus; Bacillus cereus ATCC 10987) was 0.5 µg/mL, the MIC (Bacillus cereus; Bacillus cereus ATCC 14579) was 0.5 µg/mL and the MIC (Bacillus subtilis; Bacillus subtilis (168) ATCC 6051) was greater than 8 µg/mL. It also gave an MIC (Bacillus subtilis; Bacillus subtilis ATCC 6638) greater than 8 µg/mL, an MIC (Haemophilus influenzae; Haemophilus influenzae (Rd1 KW20) ATCC 51907) of 2.5 µg/mL and an MIC (Haemophilus influenzae; Haemophilus influenzae ATCC 49247) of 1 µg/mL. The MIC (Haemophilus influenzae; Haemophilus influenzae Rd0894 (AcrA-)) was 0.14 µg/mL, the MIC90 (Haemophilus influenzae; [8]) was 2 µg/mL and the “MIC Range” value (Haemophilus influenzae; [8]) was 0.25 to 8 µg/mL. The MIC90 (Clostridium difficile; Clostridioides difficile, Clostridium difficile, 16 isolates tested) was 1 µg/mL, the MIC (Clostridium difficile; Clostridium difficile ATCC BAA-1382) was 1 µg/mL and the “MIC Range” value (Clostridium difficile; Clostridium difficile, 16 isolates tested) was 0.5 to 16 µg/mL. It also gave an MIC90 (Clostridium perfringens) of 0.5 µg/mL, an MIC90 (Bacteroides fragilis) greater than 16 µg/mL and an MIC90 [3] greater than 16 µg/mL. The MIC90 (Fusobacterium spp.) was 2 µg/mL, the “MIC Range” value (Fusobacterium spp.) was 1 to 4 µg/mL and the MIC90 (Peptostreptococcus spp.) was greater than 16 µg/mL. The MIC90 (Prevotella spp.) was greater than 16 µg/mL, the MIC (Neisseria gonorrhoeae; Neisseria gonorrhoeae ATCC 35541) was 1.3 µg/mL and the MIC (Neisseria gonorrhoeae; Neisseria gonorrhoeae ATCC 49226) was 2.3 µg/mL. The MIC90 (Neisseria gonorrhoeae; [9]) was 1 µg/mL, the “MIC Range” value (Neisseria gonorrhoeae; [9]) was 0.5 to 1 µg/mL and the MIC90 (Neisseria meningitidis) was 0.12 µg/mL. The “MIC Range” value (Neisseria meningitidis) was 0.015 to 0.25 µg/mL, the MIC (Mycobacterium avium; M. avium 3404.4) was 0.94 µg/mL and the MIC (Mycobacterium avium; M. avium Far) was 0.94 µg/mL. The MIC (Mycobacterium avium; Mycobacterium avium 103) was 0.47 µg/mL, the MIC (Nocardia caviae) was 2 µg/mL and the MIC (N. asteroids) was 8 µg/mL. The MIC (N. nova) was 8 µg/mL, the MIC (M. tuberculosis; [10]) was 0.25 µg/mL and the MIC (M. tuberculosis; M. tuberculosis H37Rv ATCC 25618) was 0.37 µg/mL. The MIC [4, 10] was 0.045 µg/mL, the MIC ([4]; M. tuberculosis Erdman ATCC 35801 with Mouse Serum) was 2 µg/mL and the MIC90 (Moraxella catarrhalis) was 0.12 µg/mL. For the same molecule, the “MIC Range” value (Moraxella catarrhalis; 26 isolates tested, Protocol 2) was 0.015 to 0.12 µg/mL, the MIC90 (Escherichia coli) was greater than 8 µg/mL and the MIC90 (Klebsiella pneumoniae) was greater than 8 µg/mL. For the same molecule, the MIC90 (Acinetobacter baumannii) was greater than 8 µg/mL, the MIC90 (Pseudomonas aeruginosa) was greater than 8 µg/mL and the MIC90 (Proteus mirabilis) was greater than 8 µg/mL. The MIC90 (Enterobacter cloacae) was greater than 8 µg/mL.
